US20200000751A1, “CARBOXYLIC ACIDS FOR TREATING/PREVENTING NASAL CONGESTION” (PROPONENT BIOTECH GMBH, priority 2016, published 2020)

Experiment: Stability of test item in solution
Format: physicochemical
Conditions: in Locke-Ringer Solution

Compound: CCC(=O)[O-].[Na+] [Sodium propionate]
- Stability of Test Item in Solution: ≥6 months in Locke-Ringer Solution
